Measurements taken from patent publication US5780605A, “6,9-bridged erythromycin derivatives” (Abbott Laboratories, priority 1997, dated 1998).

How the values were obtained:
Test in all cases: in vitro antibacterial activity (MIC), BHI agar dilution
Assay type in all cases: cell-based
[1] = tested on: Micrococcus luteus ATCC 4698; conditions: M. luteus ATCC 4698, 35-37° C., 20 to 24 hours
Description: (§1) Representative compounds of the present invention were assayed in vitro for antibacterial activity as follows: Twelve petri dishes containing successive aqueous dilutions of the test compound mixed with 10 mL of sterilized Brain Heart Infusion (BHI) agar (Difco 0418-01-5) were prepared. Each plate was inoculated with 1:100 (or 1:10 for slow-growing strains, such as Micrococcus and Streptococcus) dilutions of up to 32 different microorganisms, using a Steers replicator block. […] In addition, a control plate, using BHI agar containing no test compound, was prepared and incubated at the beginning and end of each test.
(§2) An additional plate containing a compound having known susceptibility patterns for the organisms being tested and belonging to the same antibiotic class as the test compound was also prepared and incubated as a further control, as well as to provide test-to-test comparability.
(§3) After incubation, each plate was visually inspected. The minimum inhibitory concentration (MIC) was defined as the lowest concentration of drug yielding no growth, a slight haze, or sparsely isolated colonies on the inoculum spot as compared to the growth control.

[2] = tested on: Streptococcus Pheumoniae GYR 1171; conditions: 35-37° C., 20 to 24 hours
Description: as §1, §2, §3

[3] = tested on: Staphylococcus aureus ATCC 6538P; conditions: S. aureus ATCC 6538P, 35-37° C., 20 to 24 hours
Description: as §1, §2, §3

Escherichia coli DC-2 = conditions: E. coli DC-2, 35-37° C., 20 to 24 hours
Description: as §1, §2, §3

Escherichia coli JUHL = conditions: E. coli JUHL, 35-37° C., 20 to 24 hours
Description: as §1, §2, §3

Candida albicans CCH 442 = conditions: C. albicans CCH 442, 35-37° C., 20 to 24 hours
Description: as §1, §2, §3

[4] = tested on: Staphylococcus aureus A5177; conditions: S. aureus A5177, 35-37° C., 20 to 24 hours
Description: as §1, §2, §3

[5] = tested on: Staphylococcus aureus CMX 642A; conditions: S. aureus CMX 642A, 35-37° C., 20 to 24 hours
Description: as §1, §2, §3

[6] = tested on: Streptococcus Pheumoniae 5979; conditions: 35-37° C., 20 to 24 hours
Description: as §1, §2, §3

[7] = tested on: Mycobacterium smegmafis ATCC 114; conditions: 35-37° C., 20 to 24 hours
Description: as §1, §2, §3

[8] = tested on: Streptococcus Pheumoniae 5649; conditions: 35-37° C., 20 to 24 hours
Description: as §1, §2, §3

[9] = tested on: Enterococcus faecium ATCC 8043; conditions: E. faecium ATCC 8043, 35-37° C., 20 to 24 hours
Description: as §1, §2, §3

[10] = tested on: Staphylococcus aureus NCTC10649M; conditions: S. aureus NCTC10649M, 35-37° C., 20 to 24 hours
Description: as §1, §2, §3

Escherichia coli SS = conditions: E. coli SS, 35-37° C., 20 to 24 hours
Description: as §1, §2, §3

[11] = tested on: Streptococcus agalactiae CMX 508; conditions: S. agalactiae CMX 508, 35-37° C., 20 to 24 hours
Description: as §1, §2, §3

[12] = tested on: Streptococcus pyogenes 930; conditions: S. pyogenes 930, 35-37° C., 20 to 24 hours
Description: as §1, §2, §3

[13] = tested on: Streptococcus pyogenes PIU 2548; conditions: S. pyogenes PIU 2548, 35-37° C., 20 to 24 hours
Description: as §1, §2, §3

[14] = tested on: Staphylococcus aureus A-5278; conditions: S. aureus A-5278, 35-37° C., 20 to 24 hours
Description: as §1, §2, §3

[15] = tested on: Streptococcus bovis A-5169; conditions: S. bovis A-5169, 35-37° C., 20 to 24 hours
Description: as §1, §2, §3

[16] = tested on: Staphylococcus epidermidis 3519; conditions: S. epidermidis 3519, 35-37° C., 20 to 24 hours
Description: as §1, §2, §3

[17] = tested on: Streptococcus pyogenes EES61; conditions: S. pyogenes EES61, 35-37° C., 20 to 24 hours
Description: as §1, §2, §3

[18] = tested on: Micrococcus luteus ATCC 9341; conditions: M. luteus ATCC 9341, 35-37° C., 20 to 24 hours
Description: as §1, §2, §3

[19] = tested on: Staphylococcus aureus CMX 553; conditions: S. aureus CMX 553, 35-37° C., 20 to 24 hours
Description: as §1, §2, §3

[20] = tested on: Haemophilis Influenzae DILL AMP R; conditions: 35-37° C., 20 to 24 hours
Description: as §1, §2, §3

[21] = tested on: Staphylococcus aureus 1775; conditions: S. aureus 1775, 35-37° C., 20 to 24 hours
Description: as §1, §2, §3

[22] = tested on: Nocardia Asteroides ATCC9970; conditions: 35-37° C., 20 to 24 hours
Description: as §1, §2, §3

[23] = tested on: Streptococcus Pheumoniae ATCC6303; conditions: 35-37° C., 20 to 24 hours
Description: as §1, §2, §3

CC[C@H]1OC(=O)[C@H](C)C(=O)[C@H](C)[C@@H](O[C@@H]2O[C@H](C)C[C@H](N(C)C)[C@H]2O)[C@@]2(C)C[C@@H](C)C(=NOCO2)[C@H](C)[C@H]2OC(=O)O[C@@]21C [Example 3]
MIC (minimum inhibitory concentration) [1]: 0.78
MIC (minimum inhibitory concentration) [2]: 0.25
MIC (minimum inhibitory concentration) [3]: 3.1
MIC (minimum inhibitory concentration) (Escherichia coli DC-2): > 100
MIC (minimum inhibitory concentration) (Escherichia coli JUHL): > 100
MIC (minimum inhibitory concentration) (Candida albicans CCH 442): > 100
MIC (minimum inhibitory concentration) [4]: 3.1
MIC (minimum inhibitory concentration) [5]: 3.1
MIC (minimum inhibitory concentration) [6]: > 128
MIC (minimum inhibitory concentration) [7]: 25
MIC (minimum inhibitory concentration) [8]: 0.5
MIC (minimum inhibitory concentration) [9]: 0.78
MIC (minimum inhibitory concentration) [10]: 3.1
MIC (minimum inhibitory concentration) (Escherichia coli SS): 0.78
MIC (minimum inhibitory concentration) [11]: 0.78
MIC (minimum inhibitory concentration) [12]: > 100
MIC (minimum inhibitory concentration) [13]: 0.78
MIC (minimum inhibitory concentration) [14]: > 100
MIC (minimum inhibitory concentration) [15]: 0.2
MIC (minimum inhibitory concentration) [16]: 3.1
MIC (minimum inhibitory concentration) [17]: 0.39
MIC (minimum inhibitory concentration) [18]: 0.39
MIC (minimum inhibitory concentration) [19]: 3.1
MIC (minimum inhibitory concentration) [20]: 16
MIC (minimum inhibitory concentration) [21]: > 100
MIC (minimum inhibitory concentration) [22]: 0.78
MIC (minimum inhibitory concentration) [23]: 1
